In PubChem BioAssay AID248 (DTP/NCI, 2004):
“And” between values parts separate entries of the source, which are not always exact repeats. Equal values may be shown once. Toxic doses and inconclusive results are not listed. No stated cut-off is given here; in the data, active means T/C of 150% or more; inactive means T/C below 125%.

Test system: L1210 leukemia ip in BDF1 mice, survival T/C
Assay: NCI In Vivo Anticancer Drug Screen. Data for tumor model L1210 Leukemia (intraperitoneal) in B6D2F1 (BDF1) mice
Conditions: endpoint: mean survival time, higher = longer survival
How it was run: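 Mice bearing the transplanted tumor received compound or vehicle. Survival of the treated group was divided by that of the vehicle-treated control group to give the ratio.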

[1] = dose: 100.0 mg/kg/injection, schedule: Q01DX009 (ip), vehicle: Klucel (hydroxypropylcellulose) (HPC)
[2] = dose: 100.0 mg/kg/injection, schedule: Q04DX003 (ip), vehicle: Klucel (hydroxypropylcellulose) (HPC)
[3] = dose: 200.0 mg/kg/injection, schedule: Q01DX009 (ip), vehicle: Klucel (hydroxypropylcellulose) (HPC)
[4] = dose: 200.0 mg/kg/injection, schedule: Q04DX003 (ip), vehicle: Klucel (hydroxypropylcellulose) (HPC)
[5] = dose: 400.0 mg/kg/injection, schedule: Q01DX009 (ip), vehicle: Klucel (hydroxypropylcellulose) (HPC)
[6] = dose: 400.0 mg/kg/injection, schedule: Q04DX003 (ip), vehicle: Klucel (hydroxypropylcellulose) (HPC)
[7] = dose: 100.0 mg/kg/injection, schedule: Q04DX003 (ip), vehicle: saline
[8] = dose: 200.0 mg/kg/injection, schedule: Q04DX003 (ip), vehicle: saline
[9] = dose: 400.0 mg/kg/injection, schedule: Q04DX003 (ip), vehicle: saline
[10] = dose: 100.0 mg/kg/injection, schedule: Q01DX001 (ip), vehicle: saline
[11] = dose: 200.0 mg/kg/injection, schedule: Q01DX001 (ip), vehicle: saline
[12] = dose: 400.0 mg/kg/injection, schedule: Q01DX001 (ip), vehicle: saline
[13] = dose: 25.0 mg/kg/injection, schedule: Q01DX009 (ip), vehicle: Klucel (hydroxypropylcellulose) (HPC)
[14] = dose: 50.0 mg/kg/injection, schedule: Q01DX009 (ip), vehicle: Klucel (hydroxypropylcellulose) (HPC)
[15] = dose: 100.0 mg/kg/injection, schedule: Q04DX002 (ip), vehicle: saline with Tween-80
[16] = dose: 200.0 mg/kg/injection, schedule: Q04DX002 (ip), vehicle: saline with Tween-80
[17] = dose: 400.0 mg/kg/injection, schedule: Q04DX002 (ip), vehicle: saline with Tween-80
[18] = dose: 50.0 mg/kg/injection, schedule: Q04DX002 (ip), vehicle: saline with Tween-80

Measured: T/C

O=C1CCCSc2ccccc21
inactive: [1] 106 % of control | [2] 108 % of control | [3] 104 % of control | [4] 106 % of control | [5] 106 % of control | [6] 101 % of control

CC1(c2ccccc2)NC(=O)N(CCC#N)C1=O (stereo not given)
inactive: dose: 100.0 mg/kg/injection, schedule: Q04DX003 (ip), vehicle: acetone 100 % of control | dose: 200.0 mg/kg/injection, schedule: Q04DX003 (ip), vehicle: acetone 90 % of control | dose: 400.0 mg/kg/injection, schedule: Q04DX003 (ip), vehicle: acetone 104 % of control

Cc1c(O)c2cccc(-c3ccccc3)c2oc1=O
inactive: [7] 87 % of control | [8] 91 % of control | [9] 109 % of control

c1ccc2c(c1)CC1c3ccccc3CC21 (stereo not given)
inactive: [10] 109 % of control | [11] 103 % of control | [12] 98 % of control

NC(=O)CNC(=O)C(CSCc1ccccc1)NC(=O)OCc1ccccc1 (stereo not given)
inactive: [13] 89 % of control | [14] 93 % of control | [1] 94 % of control | [2] 90 % of control

O=S(=O)(O)Cc1c(O)ccc2ccccc12
inactive: [13] 96 % of control | [14] 104 % of control | [1] 96 % of control | [15] 100 % of control | [16] 100 % of control | [17] 103 % of control

OC1CC23C=CC2(C1)C1(CC3)OCCO1 (stereo not given)
inactive: [18] 92 % of control | [15] 92 % of control | [16] 95 % of control | [17] 98 % of control

O=C(O)CNCc1ccc(Cl)cc1
inactive: dose: 12.5 mg/kg/injection, schedule: Q01DX009 (ip), vehicle: water 104 % of control | dose: 25.0 mg/kg/injection, schedule: Q01DX009 (ip), vehicle: water 96 % of control | dose: 50.0 mg/kg/injection, schedule: Q01DX009 (ip), vehicle: water 104 % of control and 91 % of control | dose: 100.0 mg/kg/injection, schedule: Q01DX009 (ip), vehicle: water 100 % of control | dose: 100.0 mg/kg/injection, schedule: Q01DX Z (ip), vehicle: saline 111 % of control | dose: 100.0 mg/kg/injection, schedule: Q04DX003 (ip), vehicle: water 88 % of control | dose: 200.0 mg/kg/injection, schedule: Q01DX Z (ip), vehicle: saline 100 % of control | dose: 200.0 mg/kg/injection, schedule: Q04DX003 (ip), vehicle: water 92 % of control

O=Cc1cccc(CC(O)(C(F)(F)F)C(F)(F)F)n1
inactive: dose: 25.0 mg/kg/injection, schedule: Q01DX009 (ip), vehicle: saline with Tween-80 101 % of control | dose: 50.0 mg/kg/injection, schedule: Q01DX009 (ip), vehicle: saline with Tween-80 101 % of control | dose: 50.0 mg/kg/injection, schedule: Q04DX003 (ip), vehicle: saline with Tween-80 91 % of control | dose: 100.0 mg/kg/injection, schedule: Q04DX003 (ip), vehicle: saline with Tween-80 91 % of control | dose: 200.0 mg/kg/injection, schedule: Q04DX003 (ip), vehicle: saline with Tween-80 104 % of control

CN(C)C(=O)Nc1cccc(OC(=O)NC2CCCCC2)c1
inactive: dose: 100.0 mg/kg/injection, schedule: Q01DX001 (ip), vehicle: saline with Tween-80 97 % of control | dose: 200.0 mg/kg/injection, schedule: Q01DX001 (ip), vehicle: saline with Tween-80 92 % of control | dose: 400.0 mg/kg/injection, schedule: Q01DX001 (ip), vehicle: saline with Tween-80 87 % of control

C=CC(=O)N1CCN(C(=O)C=C)CC1 (tested in a mixture with another compound)
inactive: dose: 0.04 mg/kg/injection, schedule: Q04DX002 (ip), vehicle: saline 101 % of control | dose: 0.09 mg/kg/injection, schedule: Q04DX002 (ip), vehicle: saline 97 % of control | dose: 0.18 mg/kg/injection, schedule: Q04DX002 (ip), vehicle: saline 97 % of control and 100 % of control | dose: 0.75 mg/kg/injection, schedule: Q04DX002 (ip), vehicle: saline 109 % of control | dose: 1.5 mg/kg/injection, schedule: Q04DX002 (ip), vehicle: saline 103 % of control | dose: 3.12 mg/kg/injection, schedule: Q04DX002 (ip), vehicle: saline 106 % of control | dose: 6.25 mg/kg/injection, schedule: Q04DX002 (ip), vehicle: saline + alcohol 97 % of control | dose: 6.25 mg/kg/injection, schedule: Q04DX002 (ip), vehicle: saline 103 % of control | dose: 12.5 mg/kg/injection, schedule: Q04DX002 (ip), vehicle: saline + alcohol 101 % of control | dose: 12.5 mg/kg/injection, schedule: Q04DX002 (ip), vehicle: saline with Tween-80 94 % of control | dose: 12.5 mg/kg/injection, schedule: Q04DX002 (ip), vehicle: saline 103 % of control | dose: 25.0 mg/kg/injection, schedule: Q04DX002 (ip), vehicle: saline + alcohol 104 % of control and 89 % of control | dose: 25.0 mg/kg/injection, schedule: Q04DX002 (ip), vehicle: saline with Tween-80 109 % of control | dose: 50.0 mg/kg/injection, schedule: Q04DX002 (ip), vehicle: saline + alcohol 92 % of control | [18] 91 % of control | dose: 50.0 mg/kg/injection, schedule: Q04DX002 (ip), vehicle: saline 96 % of control and 105 % of control | dose: 100.0 mg/kg/injection, schedule: Q04DX002 (ip), vehicle: saline + alcohol 100 % of control | dose: 100.0 mg/kg/injection, schedule: Q04DX002 (ip), vehicle: saline 100 % of control and 97 % of control and 105 % of control | dose: 200.0 mg/kg/injection, schedule: Q04DX002 (ip), vehicle: saline 97 % of control and 90 % of control | dose: 400.0 mg/kg/injection, schedule: Q04DX002 (ip), vehicle: saline 90 % of control

Cc1ccc(O)c[n+]1[O-]
inactive: [10] 94 % of control | [1] 103 % of control | [7] 101 % of control | [11] 97 % of control | [3] 94 % of control | [8] 97 % of control | [12] 100 % of control | [5] 103 % of control | [9] 103 % of control

Cc1cccc(C)c1NS(=O)(=O)c1ccc(Cl)cc1
inactive: [1] 107 % of control | [2] 101 % of control | [3] 88 % of control | [4] 102 % of control | [5] 95 % of control | [6] 98 % of control

CC1CCC(C(C)C)=C(C2CCCCC2)C1 (stereo not given)
inactive: [7] 98 % of control | [8] 104 % of control | [9] 87 % of control

FC(F)(F)c1cccc(N2CCN(c3c4c(nc5ccccc35)CCCCC4)CC2)c1
inactive: [10] 93 % of control | [11] 95 % of control | [12] 95 % of control

CCS(=O)(=O)c1ccc(NC(=O)OC(C)(c2ccccc2)C2CCCCC2)cc1 (stereo not given)
inactive: dose: 100.0 mg/kg/injection, schedule: Q01DX001 (ip), vehicle: carboxymethylcellulose (CMC) 96 % of control | dose: 200.0 mg/kg/injection, schedule: Q01DX001 (ip), vehicle: carboxymethylcellulose (CMC) 91 % of control | dose: 400.0 mg/kg/injection, schedule: Q01DX001 (ip), vehicle: carboxymethylcellulose (CMC) 100 % of control

COc1ccc(/C=C/[N+](=O)[O-])cc1O
inactive: dose: 25.0 mg/kg/injection, schedule: Q01DX009 (ip), vehicle: saline 110 % of control | dose: 25.0 mg/kg/injection, schedule: Q04DX003 (ip), vehicle: saline 98 % of control | dose: 50.0 mg/kg/injection, schedule: Q01DX009 (ip), vehicle: saline 102 % of control | dose: 50.0 mg/kg/injection, schedule: Q04DX003 (ip), vehicle: saline 98 % of control | [7] 100 % of control | [8] 86 % of control
